Consider 4 compounds from patent US11602532B2, “Nanoparticle formulations of decoquinate in the form of solid solution” (CAS Lamvac (Guangzhou) Biomedical Technology Co., Ltd., priority 2019, dated 2023).

The subject of one data set is pfB74C4 (PS). Description: Malaria SYBR fluorescence (MSF) blood stage assay, pfB74C4. In kind it is cell-based. Conditions: Plasmodium falciparum, read-out: IC50 (nM) Mean. Here is the method: (§1) Fifteen different preparations of decoquinate solid solutions as described in Examples were tested in cell culture assays to assess the growth inhibition of blood stage Plasmodium in freshly isolated human blood cells and the growth inhibition of Plasmodium in the liver stage in cell culture of HepG2 cells. The malaria SYBR fluorescence (MSF) assay was performed to detect the parasite DNA of Plasmodium falciparum in late-ring or early-trophozoite stages. […] The intensity of fluorescence generated by the binding of SYBR Green I dye to Plasmodium DNA is quantitatively proportional to the number of parasites. The detailed description of method refers to SOP of the inventors.
(§2) Chloroquine and artemisinin were used as positive controls in the same experiments.

In a further data set the test system is Pf3D7. Description: Malaria SYBR fluorescence (MSF) blood stage assay, Pf3D7. Format: cell-based. Conditions: Plasmodium falciparum, read-out: IC50 (nM) Mean. As for the experimental part:
as §1, §2

In a further data set the test system is pfB64G11 (PS). Description: Malaria SYBR fluorescence (MSF) blood stage assay, pfB64G11. In kind it is cell-based. Conditions: Plasmodium falciparum, read-out: IC50 (nM) Mean. Here is the method:
as §1, §2

For another data set, the system named is pfDd2. The data set can be described thus: Malaria SYBR fluorescence (MSF) blood stage assay, pfDd2. Format: cell-based. Conditions: Plasmodium falciparum, read-out: IC50 (nM) Mean. Here is the method: as §1, §2
The test system of another data set is Pf803. The data set can be described thus: Malaria SYBR fluorescence (MSF) blood stage assay, Pf803. Format: cell-based. Conditions: Plasmodium falciparum, read-out: IC50 (nM) Mean. Here is the method:
as §1, §2
(§3) The HME solid solutions were treated with alkaline buffer (pH 9), or with high temperature (60° C.) or with high humidity (92%) for 5 or 10 days respectively and then used for testing decoquinate inhibitory effects in in vitro blood stage experiments using freshly prepared red blood cells infected with Plasmodium Pf803 or PfB12D9. The base pH was neutralized by dialysis of decoquinate HME samples before used in cell culture experiments.

The test system of a further data set is pfB12D9 (PS). Description: Malaria SYBR fluorescence (MSF) blood stage assay, pfB12D9. Format: cell-based. Conditions: Plasmodium falciparum, read-out: IC50 (nM) Mean. Here is the method:
as §1
Table 6 is the results showing in vitro antimalarial potency of decoquinate HME formulations prepared from Example 8 (F8) and Example 15 (F15). […] Chloroquine and artemisinin were used as positive controls in the same experiments.
as §3

The subject of a further data set is pfB47D6 (PS). Description: Malaria SYBR fluorescence (MSF) blood stage assay, pfB47D6. Conditions: Plasmodium falciparum, read-out: IC50 (nM) Mean. In kind it is cell-based. Here is the method:
as §1, §2

The next data set concerns pfB74F6 (PS). The data set can be described thus: Malaria SYBR fluorescence (MSF) blood stage assay, pfB74F6. In kind it is cell-based. Conditions: Plasmodium falciparum, read-out: IC50 (nM) Mean. As for the experimental part: as §1, §2
The nature of data set [1]: HPLC analysis of decoquinate after HME, acid or alkaline treatment. Conditions: treated with pH 1.2 solution for 2 days. Format: physicochemical. Here is the method: Samples are dialyzed against distilled water, diluted and analyzed with the established method. […] Differential scanning calorimetry (DSC) analysis and X-ray diffraction analysis were performed for the selected formulations in the Examples described above.

Data set [2] concerns Plasmodium berghei ANKA (Pb 868 sporozoites). Description: Causal prophylactic efficacy against sporozoite inoculation in NIH-Swiss female mice. In kind it is in vivo. As for the experimental part:
The NIH-Swiss female mice used for the experiment were raised for at least 7 days after arrival. At the start of the experiment, the mice were 7 weeks old. Only one mouse was housed in each cage and maintained in a room with a temperature range of 18 to 26° C. with a relative humidity of 34% to 68% in a 12/12h light-dark cycle. Food and water were provided ad libitum during quarantine and throughout the study. This experiment was carried out in strict accordance with the relevant animal testing regulations (the Chinese State Council's Laboratory Animal Management Regulations, Revised Mar. 1, 2017). The decoquinate suspension used in the animal experiment was from the product of Examples 2, 8, 9, 11, 12 and 15 (F2, F8, F9, F11, F12 and F15), prepared with saline and subjected to ultrasonic treatment for 5 minutes. Each animal experiment was repeated at least three times with a group of 5 each time, so that at least 15 mice were tested in each group. The mice were inoculated with Plasmodium parasites by an injection of 50,000 sporozoites of Plasmodium berghei ANKA (Pb 868 sporozoites) through the tail vein of each mouse. Testing compound or formulation compound was administered to mice by PO (oral administration, by the manually intragastric method) the day before, the day of, and the next day after Plasmodium inoculation. The formulation compound suspended in saline were quantitated by HPLC method before dosing animals. The positive control was primaquine, an antimalarial drug used for the liver-stage Plasmodium. The vehicle control was the components used in the solid dispersion of decoquinate other than decoquinate. No anti-malarial activity was found with the vehicle control, the results of which were consistent with those obtained by using only saline as a negative control. The detection of Plasmodium parasitemia was performed as follows: a conventional method was used to count red blood cells per mm^3 of blood in that a thin film of blood was prepared and stained with 3% Giemsa for 20 minutes; and then the number of infected red blood cells per 1000 red blood cells was counted under oil microscope to obtain erythrocyte infected rate (EIR, ‰). If the parasites were not seen in the thin film, the thick film was prepared for detection of parasites and the results expressed as the parasite number per 100 white blood cells (WBC). Survival rates were calculated on day 60 post-infection for the still live mice versus the dead mice.
[…] The results shown were the number of infected mice on day 12 from the microscopic detection of parasites of thin or thick films. The results also include the protection rate on day 12 and survival rate on day 60. The products from F8, F9, F11 and F15 have 100% survival rates whereas PQ, F2 and F12 have survival rates of 80%.
Table 8 illustrates efficacy studies of the HME compositions prepared in various examples in mice infected with Plasmodium berghei expressing luciferase; wherein decoquinate given to animals at a dose of 5 mg per kg was in the saline suspension of F2, F8, F9, F11, F12, and […] HME preparations; the saline group as a negative control; PQ represents the primaquine group used as a positive control at a dose of 30 mg per kg body weight. […] Protection rates were calculated according to the data of parasitemia detection in mice on day 12 of Plasmodium sporozoite inoculation and the survival rates in each group on day 60 post the sporozoite inoculation.

The subject of data set [3] is Plasmodium berghei ANKA 868 expressing luciferase. Description: Inhibition of liver stage development assay (ILSDA) in HepG2 cells. Format: cell-based. Conditions: HepG2, read-out: PQ Mean (IC50).
Method: For the inhibition of liver stage development assay (ILSDA), HepG2 liver cells were cultured with Plasmodium berghei sporozoite expressing firefly luciferase in the presence of a series of dilutions of test compound. In the case of formulations, the compound concentration was determined by the quantitation of HPLC. […] The culture was maintained in microtiter plates for 48 hours after sporozoite invasion and intracellular proliferation of P. berghei parasites in HepG2 cells. The growth inhibition of the parasites by the test compound or the compound complexed with the excipients was determined by measuring the luminescent intensity produced by the process of luciferase catalyzing the substrates which were added by the end of incubation.
The experiments were carried out on HepG2 cells incubated with the sporozoites isolated from salivary glands of infected mosquitoes. […] The results were expressed by the half maximal inhibition concentration (IC50).
Where [4] appears, read: primaquine 20 mg/kg (table), intragastric, 3 daily doses, 5 mice per group.

Like-named read-outs stand apart in the source and are kept apart here.

`C[C@@H]1CC[C@H]2[C@@H](C)C(=O)O[C@@H]3O[C@@]4(C)CC[C@@H]1[C@]32OO4` [Artemisinin]: the IC50 (usually the concentration at which inhibition is half-maximal) in the data set on pfB74C4 (PS) (blood stage, pfB74C4, sample collected from patients) was 26.4 nM; in the data set with Pf3D7 (blood stage, Pf3D7, 72h), 23.1 nM; in the data set with pfB64G11 (PS) (blood stage, pfB64G11, sample collected from patients) it was 6.66 nM; in the data set with pfDd2 (blood stage, pfDd2 (multidrug resistance including chloroquine), 72h), 26 nM; in the data set on Pf803 (blood stage, Pf803 (chloroquine resistance), 72h), 32 nM; with pfB12D9 (PS), 24.1 nM. For the same compound, the 50% inhibitory concentration (IC50) came to 25.4 nM in the data set on pfB47D6 (PS) (blood stage, pfB47D6, sample collected from patients) and 14.5 nM in the data set on pfB74F6 (PS) (blood stage, pfB74F6, sample collected from patients).
For `CCN(CC)CCCC(C)Nc1ccnc2cc(Cl)ccc12` (centres unmarked) [Chloroquine], the IC50 in the data set on pfB74C4 (PS) is 59.3 nM; with Pf3D7 (72 h), 57.5 nM; with pfB64G11 (PS), 30.4 nM; in the data set with pfDd2 (72 h) it was 244 nM; in the data set on Pf803 (72 h), 957 nM; in the data set on pfB12D9 (PS), 63.3 nM. For the same compound, the 50% inhibitory concentration (IC50) in the data set with pfB47D6 (PS) came out at 78.2 nM; in the data set on pfB74F6 (PS) it was 79.2 nM.
Regarding `CCCCCCCCCCOc1cc2c(O)c(C(=O)OCC)cnc2cc1OCC` [Decoquinate, ethyl-6-decyloxy-7-ethoxy-4-hydroxyquinoline-3-carboxylate], the “peak pattern and retention time of decoquinate in HPLC” value in data set [1] was “change in the peak pattern and the shift in the retention time”.
In data set [2] (30 mg primaquine per kg body weight, day 60), `COc1cc(NC(C)CCCN)c2ncccc2c1` (centres unmarked) [PQ, primaquine] returned a survival rate of 80%. In addition, in [2] (setting [4]), the “Infected (Day 12)” value is 2, the “Protected rate (Day 12)” value was found to be 60, the “Survival rate (Day 32)” value is 80% and the “Survived (Day 32)” value came out at 4. Further, the IC50 in [3] was 1730 nM.
